Experimental data as given in US20160075653A1, “NEMATICIDAL N-(PHENYLCYCLOALKYL)CARBOXAMIDES AND N-(PHENYLCYCLOALKYL)THIOCARBOXAMIDES” (BAYER CROPSCIENCE AKTIENGESELLSCHAFT, priority 2013, published 2016).
Read-outs that look alike come from different tables or passages of the source.

Experiments:
[1] = test system: Meloidogyne incognita; test: Meloidogyne incognita test (MELGIN), gall formation on salad seedlings; format: in vivo; settings: application rate 20 ppm, after 14 days
Description: Meioidovnve incomita—Test (MELGIN)
Solvent: 125.0 parts by weight of acetone
To produce a suitable preparation of active compound, 1 part by weight of active compound is mixed with the stated amount of solvent, and the concentrate is diluted with water to the desired concentration.
Vessels are filled with sand, a solution of the active ingredient, a suspension containing eggs and larvae of the southern root-knot nematode (Meloidogyne incognita) and salad seeds. The salad seeds germinate and the seedlings grow. Galls develop in the roots.
After 14 days the nematicidal activity is determined on the basis of the percentage of gall formation. 100% means that no galls were found; 0% means the number of galls found on the roots of the treated plants was equal to that in untreated control plants.

[2] = Measurement of log P values by HPLC on reversed phase columns (methods [a] pH 2.3, [b] pH 2.7, [c] pH 7.8); format: physicochemical; settings: for chromatographic logP: reversed phase HPLC columns
Summary of the method: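 Retention times were converted to log P by linear interpolation between linear alkan-2-one standards (3 to 16 carbons) of known log P. Eluents, each with 10% to 95% acetonitrile gradient: phosphoric acid 0.1% at pH 2.3 [a]; formic acid 0.1% at pH 2.7, LC-MS [b]; ammonium hydrogen carbonate 0.001 molar at pH 7.8, LC-MS [c].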

[3] = HPLC reversed phase, method [b] (pH 2.7)
[4] = HPLC on reversed phase column, method [b], pH 2.7
[5] = HPLC on reversed phase column, method [c], pH 7.8
[6] = method [b], HPLC reversed phase, pH 2.7
[7] = HPLC on reversed phase columns, method [b], pH 2.7
[8] = pH 2.7, HPLC on reversed phase columns, method [b] (pH 2.7), read-out: logP

logP [2, 3]	SMILES	nematicidal activity (percentage of gall formation; 100% = no galls) [1]	further results
2.86^[b]	O=C(N[C@@H]1CC[C@@H]1c1ccccc1Cl)c1c(F)cccc1F (relative stereo) [Compound 252]	100%	–
2.84^[b]	Cn1cc(C(=O)NC2CCC2c2ccc(F)cc2C(F)(F)F)c(C(F)F)n1 (stereo not shown) [Compound 485]	90%	–
3.40^[b]	O=C(NC1CCCC1c1c(F)cccc1F)c1ccccc1I (stereo not shown) [Compound 322]	90%	–
–	O=C(NC1CCC1c1ccccc1C(F)(F)F)c1nccnc1C(F)(F)F (stereo not shown) [Compound 684]	100%	logP [2, 4]: 3.15^[b]; logP [2, 5]: 3.10^[c];
–	O=C(NC1CC1c1ccccc1)c1cccnc1C(F)F (stereo not shown) [Compound 225]	90%	–
–	O=C(N[C@@H]1C[C@@H]1c1ccc(Cl)cc1Cl)c1ncccc1Cl (relative stereo) [Compound 649]	100%	logP [2, 4]: 2.93^[b]; logP [2, 5]: 2.91^[c];
–	CS(=O)(=O)c1ccccc1C(=O)N[C@@H]1C[C@@H]1c1ccc(Cl)cc1Cl (relative stereo) [Compound 609]	100%	logP [2, 4]: 2.62^[b]; logP [2, 5]: 2.61^[c];
–	O=C(N[C@@H]1C[C@@H]1c1ccc(Cl)cc1Cl)c1ncccc1Br (relative stereo) [Compound 608]	100%	logP [2, 4]: 2.98^[b]; logP [2, 5]: 2.99^[c];
–	O=C(NC1CC1c1ccc(Cl)cc1Cl)c1occc1Br (stereo not shown) [Compound 214]	100%	logP [2, 6]: 3.56^[b]; logP ([2]; method [c], HPLC reversed phase, pH 7.8): 3.44^[c];
3.45^[b]	O=C(NC1CCCC1c1ccc(Cl)cc1)c1ccccc1Cl (stereo not shown) [Example 278]	–	–
–	CCCc1nn(C)c(F)c1C(=O)N[C@@H]1CCC[C@@H]1c1ccc(F)c(F)c1 (relative stereo) [Example 87]	–	logP [2, 7]: 3.25^[b]
–	O=C(N[C@@H]1CCC[C@@H]1c1ccc(F)c(F)c1)c1ccccc1Br (relative stereo) [Example 94]	–	logP [2, 7]: 3.35^[b]
3.01^[b]	O=C(NC1CCCC1c1ccccc1Cl)c1cccnc1C(F)(F)F (stereo not shown) [Example 361]	–	–
–	O=C(N[C@@H]1C[C@]1(F)c1ccc(Cl)cc1)c1sccc1I [Example 749]	–	chromatographic logP [2, 8]: 3.15
–	CCOc1nn(C)cc1C(=O)N[C@@H]1CCC[C@@H]1c1ccc(F)c(F)c1 (relative stereo) [Example 54]	–	logP [2, 7]: 2.78^[b]
–	CC1=C(C(=O)N[C@@H]2C[C@@H]2c2ccc(Cl)cc2Cl)SCCO1 (relative stereo) [Example 615]	–	logP [2, 4]: 3.06^[b]; logP [2, 5]: 3.01^[c];
3.35^[b]	O=C(NC1CCCC1c1ccccc1Br)c1c(F)cccc1F (stereo not shown) [Example 347]	–	–
–	Cn1cc(C(=O)N[C@@H]2CCC[C@@H]2c2ccc(F)c(F)c2)c(C(F)(F)F)n1 (relative stereo) [Example 92]	–	logP [2, 7]: 2.98^[b]
–	Cc1ccsc1C(=O)N[C@@H]1CCC[C@@H]1c1ccc(F)c(F)c1 (relative stereo) [Example 70]	–	logP [2, 7]: 3.39^[b]
–	CCn1nc(C)c(C(=O)N[C@@H]2CCC[C@@H]2c2ccc(F)c(F)c2)c1F (relative stereo) [Example 84]	–	logP [2, 7]: 2.92^[b]
2.49^[b]	Cc1nn(C)cc1C(=O)NC1CCCCC1c1ccc(Cl)cc1 (stereo not shown) [Example 367]	–	–
2.99^[b]	O=C(NC1CCCCC1c1c(F)cccc1F)c1cccnc1Cl (stereo not shown) [Example 397]	–	–
3.88^[b]	O=C(NC1CCCCC1c1ccccc1Cl)c1ccccc1Cl (stereo not shown) [Example 381]	–	–

logP [2, 3]	SMILES	nematicidal activity (percentage of gall formation; 100% = no galls) [1]	further results
2.72^[b]	Cn1cc(C(=O)N[C@@H]2CC[C@H]2c2ccccc2Cl)c(C(F)F)n1 (relative stereo) [Example 262]	–	–
2.64^[b]	Cc1nn(C)cc1C(=O)NC1CCCCC1c1ccccc1Cl (stereo not shown) [Example 377]	–	–
–	CCc1nn(C)c(F)c1C(=O)N(C1CC1)C1CCCC1c1ccccc1Cl (stereo not shown) [Example 172]	–	logP [2, 6]: 4.21^[b]
–	O=C(N[C@@H]1CC[C@@H]1c1c(Cl)cccc1Cl)c1ncc(C(F)(F)F)cc1Cl [Example 744]	–	chromatographic logP [2, 8]: 4.28
–	Cc1nn(C)c(C)c1C(=O)NC1CC1c1ccc(Br)cc1 (stereo not shown) [Example 21]	–	logP [2, 7]: 3.26^[b]
2.41^[b]	O=C(N[C@@H]1CC[C@H]1c1ccc(F)cc1C(F)(F)F)c1cccnc1 (relative stereo) [Example 526]	–	–
3.03^[b]	Cc1nc(C)c(C(=O)NC2CCCCC2c2ccc(Cl)cc2)s1 (stereo not shown) [Example 366]	–	–
–	COc1nn(C)cc1C(=O)N[C@@H]1CCC[C@@H]1c1ccc(F)c(F)c1 (relative stereo) [Example 76]	–	logP [2, 7]: 2.64^[b]
–	O=C(N[C@@H]1CC[C@H]1c1ccccc1C(F)(F)F)c1ncccc1Br (relative stereo) [Example 624]	–	logP [2, 4]: 3.34^[b]; logP [2, 5]: 3.27^[c];
–	Cn1cc(C(=O)NC2CC2c2ccccc2Cl)c(C(F)F)n1 (stereo not shown) [Example 231]	–	logP [2, 6]: 2.45^[b]
–	O=C(N[C@H]1CCC1c1ccccc1C(F)(F)F)c1ccccc1I (stereo in doubt) [Preparation Example 5, cis-2-iodo-N-{2-[2-(trifluoromethyl)phenyl]cyclobutyl}benzamide]	–	chromatographic logP ([2]; HPLC-MS, method letter not given, read-out: log P): 3.44
–	CC(F)c1nn(C)cc1C(=O)N[C@@H]1CCC[C@@H]1c1ccc(F)c(F)c1 (relative stereo) [Example 53]	–	logP [2, 7]: 2.62^[b]
–	Cn1cc(C(=O)N[C@@H]2CCC[C@@H]2c2ccc(F)c(F)c2)c(C(F)F)n1 (relative stereo) [Example 52]	–	logP [2, 7]: 2.64^[b]
–	O=C(N[C@@H]1CC[C@H]1c1ccc(Br)cc1C(F)(F)F)c1cccnc1C(F)(F)F (relative stereo) [Example 658]	–	logP [2, 4]: 3.76^[b]; logP [2, 5]: 3.66^[c];
–	O=C(N[C@@H]1CC[C@H]1c1ccccc1C(F)(F)F)c1cccnc1 (relative stereo) [Example 618]	–	logP [2, 4]: 2.26^[b]
–	Cc1occc1C(=O)N[C@@H]1CCC[C@H]1c1ccc(F)c(F)c1 (relative stereo) [Example 133]	–	logP [2, 6]: 3.17^[b]
–	O=C(N[C@@H]1CC[C@H]1c1cccc(F)c1C(F)(F)F)c1cccc(Cl)c1 (relative stereo) [Example 596]	–	logP [2, 4]: 3.92^[b]
–	O=C(NC1CCC1c1ccccc1C(F)(F)F)c1nccnc1C(F)(F)F (stereo not shown) [Example 604]	–	logP [2, 4]: 3.18^[b]; logP [2, 5]: 3.10^[c];
–	Cc1nn(C)cc1C(=O)NC1CC1c1ccc(Br)cc1 (stereo not shown) [Example 23]	–	logP [2, 7]: 3.20^[b]
–	Cn1cc(C(=O)N(C2CC2)C2CCCC2c2ccccc2Cl)c(C(F)F)n1 (stereo not shown) [Example 156]	–	logP [2, 6]: 3.85^[b]
3.16^[b]	O=C(N[C@@H]1CC[C@H]1c1ccc(F)cc1C(F)(F)F)c1nccnc1Cl (relative stereo) [Example 525]	–	–
–	O=C(N[C@@H]1CCC[C@@H]1c1ccc(F)c(F)c1)c1ccccc1Cc1ccccc1 (relative stereo) [Example 98]	–	logP [2, 7]: 4.26^[b]
–	Cc1nc(C(F)F)c(C(=O)N(C2CC2)C2CCCCC2c2ccccc2Cl)s1 (stereo not shown) [Example 171]	–	logP [2, 6]: 4.67^[b]

SMILES	logP [2, 3]	nematicidal activity (percentage of gall formation; 100% = no galls) [1]	further results
O=C(N[C@@H]1CC[C@@H]1c1ccccc1Cl)c1ccccc1C(F)(F)F (relative stereo) [Compound 251]	3.23^[b]	100%	–
O=C(NC1CC1c1ccc(Cl)cc1Cl)c1cccnc1Cl (stereo not shown) [Compound 425]	2.62^[b]	100%	–
O=C(N[C@@H]1CC[C@@H]1c1cc(F)ccc1C(F)(F)F)c1c(F)cccc1F (relative stereo) [Compound 549]	3.22^[b]	100%	–
O=C(N[C@@H]1CC[C@@H]1c1ccc(F)cc1C(F)(F)F)c1ccccc1Br (relative stereo) [Compound 491]	3.39^[b]	100%	–
O=C(NC1CCC1c1ccc(Cl)cc1Cl)c1cccnc1C(F)(F)F (stereo not shown) [Compound 481]	3.20^[b]	100%	–
O=C(N[C@@H]1CC[C@@H]1c1c(F)cccc1C(F)(F)F)c1cccnc1C(F)(F)F (relative stereo) [Compound 577]	3.81^[b]	100%	–
O=C(N[C@@H]1CC[C@@H]1c1ccccc1Cl)c1ccccc1Br (relative stereo) [Compound 253]	3.18^[b]	100%	–
O=C(N[C@@H]1CC[C@@H]1c1cc(F)ccc1C(F)(F)F)c1ccccc1[N+](=O)[O-] (relative stereo) [Compound 540]	3.07^[b]	100%	–
O=C(N[C@@H]1CC[C@@H]1c1c(F)cccc1C(F)(F)F)c1ccccc1[N+](=O)[O-] (relative stereo) [Compound 561]	3.03^[b]	100%	–
O=C(N[C@@H]1CC[C@H]1c1ccc(F)cc1C(F)(F)F)c1ccccc1I (relative stereo) [Compound 502]	3.76^[b]	–	–
